Reference: patent publication US20210189643A1 (VF Jeanswear LP, priority 2017, published 2021)

Assay: Hydrolysis of modified indigo compound to indigo
Assay type: physicochemical
Settings: under hydrolyzing conditions
Experimental: In some embodiments, the substrate is contacted with a hydrolyzing agent, the hydrolyzing agent being capable of reacting with the modified indigo compound contained within the substrate to convert the modified indigo compound into indigo.
The hydrolysis is performed using any chemical compound or condition that is capable of converting the dye compound to indigo. In some embodiments, the hydrolysis is performed in aqueous compositions which contain a hydrolyzing agent. In other embodiments, the hydrolyzing agent may be selected by one skilled in the art and may include, without limitation, a base, heat, steam, or a combination thereof.

conversion to indigo by hydrolysis: hydrolyzes to indigo
SMILES: O=C1/C(=C2/C(=O)c3ccccc3N2C(=O)c2ccncc2)N(C(=O)c2ccncc2)c2ccccc21 [Compound 37]
